This assay addresses T1, SHC-transforming protein 2 (Homo sapiens, UniProt P98077).
T1 sequence (P98077 whole entry): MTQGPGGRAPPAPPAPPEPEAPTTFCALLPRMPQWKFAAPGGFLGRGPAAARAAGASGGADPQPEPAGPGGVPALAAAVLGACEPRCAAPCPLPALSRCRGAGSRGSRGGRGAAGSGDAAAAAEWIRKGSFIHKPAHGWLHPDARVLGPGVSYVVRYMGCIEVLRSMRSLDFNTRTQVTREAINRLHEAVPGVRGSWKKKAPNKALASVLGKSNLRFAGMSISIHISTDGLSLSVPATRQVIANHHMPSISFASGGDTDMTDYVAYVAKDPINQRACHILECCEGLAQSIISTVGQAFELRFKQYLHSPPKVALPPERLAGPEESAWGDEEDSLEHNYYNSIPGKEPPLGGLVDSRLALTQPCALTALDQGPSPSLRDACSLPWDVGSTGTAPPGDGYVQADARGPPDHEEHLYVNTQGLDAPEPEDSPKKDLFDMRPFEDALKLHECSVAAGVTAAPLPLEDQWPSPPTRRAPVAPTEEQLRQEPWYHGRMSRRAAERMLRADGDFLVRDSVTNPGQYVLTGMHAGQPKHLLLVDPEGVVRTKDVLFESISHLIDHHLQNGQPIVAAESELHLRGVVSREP
Put plainly: Inhibition of binding to SH2 domain of SHC-PTB.

pIC50: −log10 of the molar value. Where only a bound is given, the exact number is not on record here.

For orientation: pIC50 means the IC50 on a negative log10 scale, so that one unit is a factor of ten. High values mean a low IC50, low ones a high IC50. For `NC(=O)CC(NC(=O)C1(NC(=O)C(N)Cc2ccc(OP(=O)(O)O)c(N)c2)CCCCC1)C(N)=O` (stereo unspecified) [Phosphoric acid mono-(2-amino-4-{2-amino-2-[1-(1,2-dicarbamoyl-ethylcarbamoyl)-cyclohexylcarbamoyl]-ethyl}-phenyl) ester], the pIC50 is less than 5.30.

Source of the values: BindingDB's records for doi:10.1021/jm970856n (Novartis Pharma, 1998).
